Results reported in patent US6689596B2, “High level expression of human cyclooxygenase-2” (Merck & Co., Inc., priority 1992, dated 2004).

Experiments:
[1] = target: T1, cyclooxygenase-1 (U-937 microsomes) (Homo sapiens, UniProt P23219); test: Microsomal cyclooxygenase assay, U-937 microsomes; format: biochemical; conditions: 20 μM arachidonic acid
T1 construct: host or cells: microsomal fraction of U-937 cells
Method: COX-1 cells are grown and maintained in culture as described above, washed in a suitable buffer, such as PBS, and cell pellets or concentrates stored, preferably at −80° C. […] The cell homogenate is then concentrated and resuspended. In our preferred procedure the cell homogenate is centrifuged at 10,000× g for 10 minutes at 4° C. The supernatant fraction is then recentrifuged at 100,000× g for 2 hours at 4° C., and the resulting microsomal pellet resuspended in a suitable buffer, such as 0.1 M Tris-HCl, 1 mM EDTA, pH 7.4 to a protein concentration of approximately 1 to 10 mg/ml. Aliquots of osteosarcoma microsomal preparations may be stored at reduced temperature and thawed prior to use.
(§1) Microsomal preparations from Human osteosarcoma and U937 cells are diluted in buffer, such as 0.1 M Tris-HCl, 10 mM EDTA, pH 7.4, (Buffer A) to a protein concentration of 50 to 500 µg/ml. […] Typically, assays are performed in either duplicate or triplicate. Peroxide-free arachidonic acid (CAYMAN) in Buffer A is then added to a final concentration of 20 μM arachidonic acid, followed by incubation, preferably at room temperature for 10 to 60 minutes. Control samples contained ethanol or other vehicle instead of arachidonic acid. Following incubation, the reaction was terminated by addition of HCl or other mineral acid. Prior to analysis of PGE2 levels, samples were neutralized. Levels of PGE2 in samples may be quantitated as described for the whole cell cyclooxygenase assay.
U-937 cells were grown and maintained in culture as described above, washed in PBS, and cell pellets frozen at −80° C. […] The cell homogenate was then centrifuged at 10,000× g for 10 minutes at 4° C. The supernatant fraction was then recentrifuged at 100,000× g for 2 hours at 4° C., and the resulting microsomal pellet resuspended in 0.1 M Tris-HCl, 1 mM EDTA, pH 7.4 to a protein concentration of approximately 4 mg/ml. 500 μl aliquots of osteosarcoma microsomal preparations were stored at −80° C. and thawed on ice immediately prior to use.
All subsequent assay steps, including the dilution of stock solutions of test compounds, were automated using the BIOMEK 100 (BIORAD). 5 μl of test compound or DMSO vehicle was added, with mixing, to 20 μl of buffer A in a 96-well minitube plate (BECKMAN). 200 μl of microsome suspension was then added, followed by mixing and incubation for 5 minutes at room temperature. Assays were performed in either duplicate or triplicate. […] of peroxide-free arachidonic acid (CAYMAN) in buffer A is then added to a final concentration of 20 μM aracidonic acid, with mixing, followed by incubation at room temperature for 40 minutes. Control samples contained ethanol vehicle instead of arachidonic acid. Following the incubation period, the reaction was terminated by the addition of 25 μl of 1N HCl, with mixing. Prior to analysis of PGE2 levels, samples were neutralized by the addition of 25 μl of 1 N NaOH. Levels of PGE2 in samples were quantitated by enzyme immunoassay (CAYMAN) as described for the whole cell cyclooxygenase assay.

[2] = target: T2, cyclooxygenase-2 (osteosarcoma 143.98.2 microsomes) (Homo sapiens, UniProt P35354); test: Microsomal cyclooxygenase assay, osteosarcoma 143.98.2 microsomes; format: biochemical; conditions: 20 μM arachidonic acid
T2 construct: The cell homogenates were then subjected to a differential centrifugation protocol to yield an enriched microsomal preparation; endogenous in cells; host or cells: microsomal fraction of human osteosarcoma 143.98.2 cells
T2 sequence (P35354 18-604): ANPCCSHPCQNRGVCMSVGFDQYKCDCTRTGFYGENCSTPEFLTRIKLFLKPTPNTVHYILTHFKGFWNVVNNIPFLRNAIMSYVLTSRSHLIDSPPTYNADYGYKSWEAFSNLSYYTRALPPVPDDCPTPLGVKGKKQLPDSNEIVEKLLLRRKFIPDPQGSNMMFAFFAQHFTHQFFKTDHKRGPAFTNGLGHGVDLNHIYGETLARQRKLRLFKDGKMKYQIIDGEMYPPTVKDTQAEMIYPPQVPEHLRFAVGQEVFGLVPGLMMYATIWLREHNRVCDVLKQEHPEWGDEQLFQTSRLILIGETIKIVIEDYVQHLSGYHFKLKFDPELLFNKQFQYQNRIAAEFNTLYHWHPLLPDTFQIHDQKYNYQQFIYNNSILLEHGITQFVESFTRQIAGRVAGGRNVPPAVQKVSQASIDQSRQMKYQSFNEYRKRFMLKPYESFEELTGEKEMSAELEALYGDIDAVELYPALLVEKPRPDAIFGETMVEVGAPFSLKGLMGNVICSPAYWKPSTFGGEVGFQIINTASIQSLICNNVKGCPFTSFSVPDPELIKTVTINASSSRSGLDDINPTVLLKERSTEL
Method: Human osteosarcoma cells may be grown and maintained in culture as described above. Approximately 10^5 to 10^7 cells are plated in tissue culture plates such as available from NUNCLON and maintained in culture for 2 to 7 days. Cells may be washed with a suitable buffer such phosphate buffered saline, (PBS), pH 7.2. Cells are then removed from the plate, preferably by scraping into PBS. Samples may then be concentrated, such as by centrifuging at 400× g for 10 minutes at 4° C. Cell pellets or other concentrates are either stored at a suitable reduced temperature such as −80° C., or processed immediately. All further manipulations of the cells are preferably performed at 0-4° C. […] Enriched microsomal preparations are then prepared, such as by differential centrifugation to yield an enriched microsomal preparation. In our preferred procedure, the first step consists of four sequential centrifugations of the cell homogenate at 10,000× g for 10 min at 4° C. After each centrifugation at 10,000×.g, the supernatant is retained and recentrifuged. Following the fourth centrifugation, the supernatant is centrifuged at 100,000× g for 60-90 min at 4° C. to pellet the microsomal fraction. […] The resulting microsomal suspension is recentrifuged such as at 100,000× g for 90 min at 4° C. to recover the microsomes. Following this centrifugation the microsomal pellet is resuspended in a stabilizing buffer, such as 0.1 M Tris-Cl, pH 7.4, containing 10 mM EDTA at a protein concentration of approximately 2-5 mg/ml. Aliquots of osteosarcoma microsomal preparations may be stored at low temperature, such as at −80° C. and thawed prior to use.
as §1
Cells were washed twice with 100 ml of phosphate buffered saline, pH 7.2, (PBS) and then scraped from the plate with a sterile rubber scraper into PBS. Samples were then centrifuged at 400× g for 10 minutes at 4° C. Cell pellets were either stored at −80° C. until use or processed immediately. All further manipulations of the cells were performed at 0-4° C. […] The cell homogenates were then subjected to a differential centrifugation protocol to yield an enriched microsomal preparation. The first step consisted of four sequential centrifugations of the cell homogenate at 10,000× g for 10 min at 4° C. After each centrifugation at 10,000× g the supernatant was retained and recentrifuged. Following the fourth centrifugation, the supernatant was centrifuged at 100,000× g for 60-90 min at 4° C. to pellet the microsomal fraction. […] The resulting microsomal suspension was recentrifuged at 100,000× g for 90 min at 4° C. to recover the microsomes. […] 500 μl aliquots of osteosarcoma microsomal preparations were stored at −80° C. and thawed on ice immediately prior to use.
All subsequent assay steps, including the dilution of stock solutions of test compounds, were automated using the BIOMEK 100 (BIORAD). 5 μl of test compound or DMSO vehicle was added, with mixing, to 20 μl of buffer A in a 96-well minitube plate (BECKMAN).

[3] = target: T3, cyclooxygenase-1 (U-937 cells) (Homo sapiens, UniProt P23219); test: Whole cell cyclooxygenase assay, PGE2 synthesis by U-937 cells in response to exogenous arachidonic acid; format: cell-based
T3 construct: the appropriate number of U-937 cells were removed from spinner cultures and centrifuged; host or cells: U-937 human histiocytic lymphoma cells (intact)
Method: Such cells are hereinafter described as COX-1 cells. Prior to assay, the appropriate number of COX-1 cells (10^5 to 10^7 cells/ml) are removed from cultures and concentrated using a technique such as by centrifugation at 300× g for 10 minutes. The supernatant is decanted and cells are washed in a suitable buffer. […] Following incubation of human osteosarcoma cells or COX-1 cells in a suitable buffer, a test compound and/or vehicle samples (such as DMSO) is added, and the resulting composition gently mixed. Preferably the assay is performed in triplicate. Arachidonic acid is then added in proportions as described above. […] Control samples should contain ethanol or other vehicle instead of arachidonic acid. […] For osteosarcoma cells, reactions may be stopped by the addition HCl or other acid, preferably combined with mixing, or by the rapid removal of media directly from cell monolayers. For U-937 cells, reactions may be advantageously be performed in multiwell dishes or microcentrifuge tubes and stopped by the addition of HCl or another mineral acid. Typically, samples assayed in 24-multidishes are then transferred to microcentrifuge tubes, and all samples frozen on dry ice. Similarly, samples are typically stored at -20° C. or below prior to analysis of PGE2 levels. […] Samples are then preferably mixed, such as by vortexing, and PGE2 levels measured using a PGE2 enzyme immunoassay, such as is commercially available from CAYMAN. We have advantageously conducted the plating, washing and color development steps as an automated sequence using a BIOMEK 1000 (BECKMAN). […] Levels of PGE2 are calculated from the standard curve, and may optionally determined using BECKMAN IMMUNOFIT EIA/RIA analysis software. […] Inhibition of PGE2 synthesis by test compounds is calculated between PGE2 levels in samples incubated in the absence or presence of […]. […] For routine subculturing, cells were diluted in fresh medium and transferred to fresh flasks. […] The supernatant was decanted and cells washed in 50 ml of HBSS prewarmed to 37° C. Cells were again pelleted at 300× g for 10 minutes and resuspended in prewarmed HBSS to a final cell density of approximately 1.5×10^6 cells/ml. 1 ml aliquots of cell suspension were transferred to 1.5 ml microcentrifuge tubes or 24-well multidishes (Nunclon). […] All assays were performed in triplicate. […] Control samples contained ethanol vehicle instead of arachidonic acid. Samples were again gently mixed and incubated for a further 10 minutes at 37° C. […] For U-937 cells, reactions in multiwell dishes or microcentrifuge tubes were stopped by the addition of 100 μl of 1N HCl, with mixing. Samples assayed in 24-multidishes were then transferred to microcentrifuge tubes, and all samples were frozen on dry ice. Samples were stored at -20° C. prior to analysis of PGE2 levels. […] Samples were then mixed by vortexing, and PGE2 levels measured using a PGE2 enzyme immunoassay (CAYMAN) according to the manufacturers instructions. The plating, washing and colour development steps of this procedure were automated using a BIOMEK 1000 (BECKMAN). […] Levels of PGE2 were calculated from the standard curve determined using BECKMAN IMMUNOFIT EIA/RIA analysis software.

osteosarcoma 143 cells = test: PGE2 synthesis by osteosarcoma 143 cells in response to arachidonic acid after treatment with growth factors/cytokines; format: cell-based, human; conditions: 10 pg/ml; within a 3-hour period, 1% serum; relative to cells grown in the absence of these factors

T3 sequence (P23219 24-599): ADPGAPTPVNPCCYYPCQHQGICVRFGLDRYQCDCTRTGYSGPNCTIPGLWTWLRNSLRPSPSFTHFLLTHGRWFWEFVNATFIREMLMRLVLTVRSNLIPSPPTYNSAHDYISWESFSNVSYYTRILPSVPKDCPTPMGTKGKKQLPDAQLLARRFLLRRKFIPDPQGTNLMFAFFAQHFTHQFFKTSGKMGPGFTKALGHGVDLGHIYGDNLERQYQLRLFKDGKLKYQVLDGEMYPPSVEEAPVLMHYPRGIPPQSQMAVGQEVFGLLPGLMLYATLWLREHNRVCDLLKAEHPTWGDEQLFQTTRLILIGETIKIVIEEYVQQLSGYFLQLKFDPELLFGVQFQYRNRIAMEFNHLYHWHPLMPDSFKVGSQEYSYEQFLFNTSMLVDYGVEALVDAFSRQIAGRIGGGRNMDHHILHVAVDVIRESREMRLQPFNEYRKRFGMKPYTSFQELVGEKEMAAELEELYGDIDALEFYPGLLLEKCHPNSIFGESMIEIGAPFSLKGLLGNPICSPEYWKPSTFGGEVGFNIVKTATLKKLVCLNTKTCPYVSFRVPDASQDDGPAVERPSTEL
T1 sequence (P23219 24-599): as above

| Compound | inhibition at 0.1 µM ([1]; drug 100 nM) | inhibition at 3 µM ([1]; drug 3 uM) | 143.98.2 % Inhibition ([2]; drug 100 nM) | 143.98.2 % Inhibition ([2]; drug 3 uM) | U-937 % Inhibition ([1]; drug 100 nM) | U-937 % Inhibition ([1]; drug 3 uM) | other results |
| --- | --- | --- | --- | --- | --- | --- | --- |
| CS(=O)(=O)c1ccc(-c2cc(Br)sc2-c2ccc(F)cc2)cc1 [DuP-697] | 6% | 48% | – | – | – | – | – |
| CC(=O)c1ccc(NS(C)(=O)=O)c(Oc2ccc(F)cc2F)c1 [FK-3311] | – | – | 20% | 26% | 0% | 0% | – |
| CS(=O)(=O)Nc1cc2c(cc1Oc1ccc(F)cc1F)C(=O)CC2 [Flosulide] | 0% | 0% | – | – | – | – | – |
| O=C(O)c1ccccc1Nc1cccc(C(F)(F)F)c1 [Flufenamic] | – | – | 16% | 36% | 5% | 0% | – |
| IL1-β: human recombinant IL1-β (R and D systems Inc.) | – | – | – | – | – | – | levels of PGE2 synthesis by osteosarcoma 143 cells in response to arachidonic acid (osteosarcoma 143 cells): increased |

The next lines start with results.

| inhibition at 0.1 µM ([1]; drug 100 nM) | inhibition at 3 µM ([1]; drug 3 uM) | 143.98.2 % Inhibition ([2]; drug 100 nM) | 143.98.2 % Inhibition ([2]; drug 3 uM) | U-937 % Inhibition ([1]; drug 100 nM) | U-937 % Inhibition ([1]; drug 3 uM) | Compound | other results |
| --- | --- | --- | --- | --- | --- | --- | --- |
| – | – | – | – | 57% | 89% | CC(C(=O)O)c1ccc(-c2ccccc2)c(F)c1 (centres unmarked) [Fluribprofen] | – |
| 0% | 0% | – | – | – | – | CS(=O)(=O)Nc1ccc([N+](=O)[O-])cc1OC1CCCCC1 [NS-398] | U-937 PGE2 ([3]; sample 0.3 nM): 18.3 ng/10^6 cells; U-937 PGE2 ([3]; sample 1.0 nM): 17.7 ng/10^6 cells; U-937 PGE2 ([3]; sample 3.0 nM): 18.3 ng/10^6 cells; U-937 PGE2 ([3]; sample 10 nM): 20.4 ng/10^6 cells; U-937 PGE2 ([3]; sample 30.0 nM): 17.7 ng/10^6 cells; U-937 PGE2 ([3]; sample 100 nM): 18.9 ng/10^6 cells |
| 0% | 4% | – | – | – | – | CSc1ccc(/C=C2/C(C)=C(CC(=O)O)c3cc(F)ccc32)cc1 [Sulindac sulfide] | – |
| – | – | 45% | 66% | 30% | 67% | Cc1cc(CC(=O)O)n(C)c1C(=O)c1ccc(Cl)cc1 [Zomipirac] | – |
